Results published in patent US20180202936A1, “Modified Hydrocyanine Dyes for the Detection of Reactive Oxygen Species” (Life Technologies Corporation, priority 2010, published 2018).

Legend:
Type in all cases: cell-based
RAW macrophages = test: Specificity of ROS signal: NADPH oxidase inhibitor in LPS-treated RAW cells (Example 8); conditions: 500 ng/mL LPS; Far Red ROS Sensor readout
Method: (§1) BPAE cells or RAW macrophages were plated in 96-well plates. BPAE cells were treated with or without 100 μM Menadione for 1 h. 100 μM of superoxide scavenger, MnTBAP was added to some of the control and menadione-treated wells for the last 30 min of incubation. RAW cells were treated with or without 500 ng/mL of Lipopolysachharide (LPS) with or without Diphenylenelodinium (DPI), an NADPH oxidase inhibitor.

Live Jurkat cells = test: Flow cytometry of ROS formation in live Jurkat cells (Example 4); conditions: 100 μM Menadione or 500 nM PMA, 1 hr; 5 μM Far Red ROS Sensor 30 min; 635 nm excitation, emission 650-670 nm
Method: Live Jurkat cells were treated with or without either 100 μM Menadione or 500 nM phorbol myristate acetate (PMA) for 1 hr. The cells were stained with 5 μM Far Red ROS Sensor and Hoechst 33342 for 30 mins. The cells were washed 3 times with PBS and then analyzed at approximately 400 events per second on a BD® LSR II flow cytometer (Beckton Dickinson, Franklin Lakes, N.J.) with 635 nm laser excitation and fluorescence emission collected from 650-670 nm.

BPAE cells = test: Specificity of ROS signal: superoxide scavenger in menadione-treated BPAE cells (Example 8); conditions: 100 μM MnTBAP, last 30 min; 100 μM Menadione 1 h; Far Red ROS Sensor readout
Method: as §1

HepG2 cells = test: Multiplexed measurement of oxidative stress, cytotoxicity and apoptosis in HepG2 cells (Example 10); conditions: 50 μM Nefazodone 24 h
Method: For the last 30 min of Nefazodone treatment, the cells were either stained with 5 μM Far Red ROS Sensor and 20 nM Image-IT® DEAD Green™ viability stain (Life Technologies Corp., Carlsbad, Calif.), FIG. 10a) or 5 μM Far Red ROS Sensor and 5 μM fluorogenic CaspaGreen caspase substrate (FIG. 10b). […] Image-iT® DEAD Green™ measures plasma membrane permeability, a marker for cytotoxicity.

For `c1ccc2c(c1)[I+]c1ccccc1-2` [DPI, Diphenylenelodinium], the “effect on ROS caused by LPS” value (RAW macrophages) was “inhibited ROS”.
In the case of `CC1=CC(=O)c2ccccc2C1=O` [Menadione], the “ROS formation after treatment” value (Live Jurkat cells) is reported as “increase in ROS formation”.
In the case of `O=C(O)c1ccc(/C2=C3\C=CC(=N3)/C(c3ccc(C(=O)O)cc3)=c3/cc/c4[n]3[Mn]([Cl])[n]3c2ccc3/C(c2ccc(C(=O)O)cc2)=C2/C=CC(=N2)\C=4c2ccc(C(=O)O)cc2)cc1` [MnTBAP], the “effect on ROS caused by Menadione” value (BPAE cells) is reported as “inhibited ROS”.
`CCc1nn(CCCN2CCN(c3cccc(Cl)c3)CC2)c(=O)n1CCOc1ccccc1` [Nefazodone] was tested, and the “apoptosis (fluorogenic CaspaGreen caspase substrate)” value (HepG2 cells; 5 μM CaspaGreen caspase substrate) was “increased nuclear staining” and the “oxidative stress (Far Red ROS Sensor)” value (HepG2 cells; 5 μM Far Red ROS Sensor) was “causes oxidative stress”.
In the case of `CCCCCCCCCCCCCC(=O)O[C@@H]1[C@@H](C)[C@@]2(O)[C@@H](C=C(CO)C[C@]3(O)C(=O)C(C)=C[C@@H]23)[C@@H]2C(C)(C)[C@]12OC(C)=O` [PMA, phorbol myristate acetate], the “ROS formation after treatment” value (Live Jurkat cells) is reported as “increase in ROS formation”.
